Results from publication PMC4501687, “Design of a Selective Substrate and Activity Based Probe for Human Neutrophil Serine Protease 4” (PLoS ONE, 2015).

What was measured:
NSP4 [1] = target: T1, NSP4 (Homo sapiens, UniProt Q6UWY2); experiment: Inhibition rate constant (kobs/I), pseudo-first order, NSP4; assay type: biochemical
T1 construct: made in house
T1 sequence (Q6UWY2 32-283): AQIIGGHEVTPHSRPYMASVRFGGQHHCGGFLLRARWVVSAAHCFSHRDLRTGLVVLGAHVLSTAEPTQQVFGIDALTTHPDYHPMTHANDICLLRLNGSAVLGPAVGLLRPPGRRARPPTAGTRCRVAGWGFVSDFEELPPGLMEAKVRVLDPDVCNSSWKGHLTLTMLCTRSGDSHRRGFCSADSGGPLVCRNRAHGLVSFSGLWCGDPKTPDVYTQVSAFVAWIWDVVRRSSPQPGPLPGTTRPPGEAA
Protocol: (§1) The active concentration of each NSP was determined by PK401 titration in 50 mM Hepes, 0.1 M NaCl, 0.1%TRITON-X100, pH 7.45 assay buffer on 96 wells Corning plates. Rfu/s values were measured for minimum 20 minutes. The excitation wavelength was 355 nm, and the emission wavelength was 460 nm, with a cutoff of 455 nm. Under pseudo-first order conditions, a fixed amount of NSP4 (2.8 nM active enzyme), PR3, NE, or CatG (100 nM active enzyme) was mixed with PK401 at different concentration ranges starting from at least 2-fold excess over NSP4 (6.6–20nM) and 7-fold excess over NE, CatG and PR3 (0.7–50μM). […] Product formation (P) proceeded at an initial velocity (V) and was inhibited over time (t) at a rate of (k a): P = V/ka*(1-e^-ka^*t)+C, where k o is defined as k obs(app) −the apparent rate of inhibition in the presence of substrate. k obs was determined separately for each probe concentration using non-linear regression analysis in GraphPadPrism software. The obtained values were plotted against probe concentration giving k obs(app)/I (apparent second order rate constant). kobs/I (absolute value of the second order rate constant) was then calculated from kobs/I = ka/I *(1+[S]/Km). […]

CatG [2] = target: T2, CatG (Homo sapiens, UniProt P08311); experiment: Inhibition rate constant (kobs/I), pseudo-first order, CatG; assay type: biochemical; settings: selectivity NSP4 over CatG
T2 construct: purchased Biocentrum, Krakow, Poland
T2 sequence (P08311 21-255): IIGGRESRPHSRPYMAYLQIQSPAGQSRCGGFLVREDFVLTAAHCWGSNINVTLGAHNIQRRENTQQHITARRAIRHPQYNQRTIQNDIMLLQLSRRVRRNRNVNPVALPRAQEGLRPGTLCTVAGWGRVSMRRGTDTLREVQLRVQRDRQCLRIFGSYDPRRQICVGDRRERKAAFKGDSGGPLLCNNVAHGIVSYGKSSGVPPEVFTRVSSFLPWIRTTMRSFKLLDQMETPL
Protocol: as §1

NSP4 [3] = target: T1, NSP4; experiment: SDS-PAGE / streptavidin blot labeling of purified NSP4 by probe; assay type: binding; settings: 100 nM NSP4, 20 min 37°C; SDS-PAGE, nitrocellulose transfer, fluorescent streptavidin; probe tested 1–2000 nM
Protocol: 100nM of NSP4 was incubated with competing inhibitor—Ac-IVPR-CMK for 30 minutes at 37°C and then treated with different concentrations of probe—PK401 (2000nM and 1000nM) for 20 minutes at 37°C. Separately, 100nM of NSP4 was incubated with five different concentrations of probe- 2000nM, 1000nM, 100nM, 10nM, and 1 nM for 20 minutes in 37°C. As a control 100nM PK401 was incubated with assay buffer.
(§2) Samples were denatured and run in 4–12% SDS PAGE following transfer to nitrocellulose membrane. The membrane was blocked with 1.5% BSA in TBST overnight at 4°C and treated with IRDye800CW Streptavidin (dilution 1:10000 with 1.5% BSA in TBST) for 45 minutes. Then enzyme was visualized using a Li-cor fluorescence imager and Odyssey Molecular Modeling Software.
(§3) SDS-page and Western Blot […]
A standard SDS broad spectrum marker (Biorad) was used (Fig. 4A, lane 1). […]
(§4) minutes in 37° C (Fig. 4, lanes 4, 5, 6, 7, 8). […] Then enzyme was visualized using a Li-cor fluorescence imager and Odyssey Molecular Modeling Software. […]
(§5) The membrane was blocked with 1.5% BSA in TBST overnight at 4° C and treated with IRDye800CW Streptavidin (dilution 1:10000 with 1,5% BSA in TBST) for 45 minutes. Then PK401 was visualized using a Li-cor fluorescence imager and Odyssey Molecular Modeling Software.

NE = target: T3, NE (Homo sapiens, UniProt P08246); experiment: SDS-PAGE / streptavidin blot labeling of NE by probe; assay type: binding; settings: 100 nM active enzyme, 100 nM PK401; streptavidin blot (Fig 4B)
T3 construct: purchased Biocentrum, Krakow, Poland
T3 sequence (P08246 30-267): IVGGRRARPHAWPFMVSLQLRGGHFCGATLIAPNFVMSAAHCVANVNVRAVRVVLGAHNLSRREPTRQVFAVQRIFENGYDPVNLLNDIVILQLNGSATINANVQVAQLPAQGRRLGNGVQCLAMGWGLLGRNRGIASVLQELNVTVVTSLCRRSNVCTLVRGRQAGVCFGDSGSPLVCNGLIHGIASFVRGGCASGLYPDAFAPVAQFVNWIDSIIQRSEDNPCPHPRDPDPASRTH
Protocol: as §2
(§6) The same methodology was used to visualize potential cross-reactivity of NSP’s with PK401. 100nM of each NSP was incubated with buffer or 100nM PK401, followed by SDS-page and transfer to nitrocellulose membrane. For more details see S1 Text.
as §3
(§7) A standard SDS broad spectrum marker (Biorad) was used (Fig. 4A, lane 1).
(§8) Two Eppendorf tubes with 100nM of NSP4 were incubated with Ac-IVPR-CMK for 30 minutes at 37°C and then treated with PK401 at 2000nM and 1000nM for an additional 20 minutes at 37° C (Fig. 4, lanes 2 and 3). Separately, 100nM enzyme […]
as §4, §5

CatG [4] = target: T2, CatG; experiment: SDS-PAGE / streptavidin blot labeling of CatG by probe; assay type: binding; settings: 100 nM active enzyme, 100 nM PK401; streptavidin blot (Fig 4B)
Protocol: as §2, §6, §3, §7, §8, §4, §5

CatG [5] = target: T2, CatG; experiment: Fluorogenic substrate hydrolysis kinetics with CatG; assay type: biochemical; settings: Table 3; assay substrate for CatG; Km above 100 μM, the concentration used in the assay; read-out: Km of the substrate used for analysis
Protocol: Kinetic parameters of selected substrates were determined in 50 mM Hepes, 0.1 M NaCl, 0.1%TRITON-X100, pH 7.45 assay buffer on 96 wells Corning plates. Measurements were performed for a minimum of 20 minutes. The excitation wavelength was 355 nm, and the emission wavelength was 460 nm, with a cutoff of 455 nm. Human NE and CatG were purchased from Biocentrum, Krakow, Poland and PR3 from Athens Research Technology, Athens, Georgia, USA. Recombinant human NSP4 was expressed and purified as previously described.
In addition to NSP4, neutrophils contain three other structurally-related serine proteases NE, PR3 and CatG [1] that are also stored in azurophilic granules. To estimate the degree of eventual cross reactivity of the optimal substrate with these three serine proteases, we measured kinetic parameters for each enzyme on PK421. […] In the case of CatG we were unable to saturate the enzyme and therefore could not calculate the individual values of kcat and Km.

Row | Substance | kobs/I (second order rate constant of inhibition) (NSP4 [1]; NSP4 2.8 nM active enzyme, probe 6.6–20 nM, substrate Ac-hCha-Phe(guan)-Pro-Arg-ACC above Km, 37°C, Hepes buffer pH 7.45, corrected by 1+[S]/Km) | Fold higher kobs/I than PK401b (NSP4 [1]; NSP4, diastereoisomers compared) | Inhibition of CatG relative to NSP4 (kobs/I) (CatG [2]) | Probe concentration giving robust labeling of NSP4 (NSP4 [3]) | Labeling of NE by probe (NE) | Labeling of CatG by probe (CatG [4]) | Km (CatG [5])
1 | Biot-Ahx-hCha-Phe(guan)-Oic-Arg^P(OPh)2 [PK401] | 3.8e+06 M⁻¹ s⁻¹ | 40 times | three orders of magnitude slower | 10 nM | only trace amounts of labeling | only trace amounts of labeling | –
2 | Suc-Ala-Ala-Pro-Phe-AMC [assay substrate for CatG] | – | – | – | – | – | – | > 100 µM
